Reference: US20060115431A1, “Procedures of cellular labelling with paramagnetic complexes for mri applications” (Bracco Imaging S.p.A., priority 2002, published 2006)

What was measured:
macrophages esterase = experiment: Macrophage lysate esterase on Gd-1 (R1 increase); type: biochemical; conditions: about 4×10^6 macrophages lysed by sonication, about 1 mg Gd-1
Method: Afterwards, the macrophages esterase was tested. For this purpose, about 4×10^6 macrophages were subjected to lysis by sonication and about 1 mg Gd-1 was added to the lysate. The enzyme present in the cellular lysate rapidly cleaves the hydrophobic ester groups, thus releasing the soluble Gd complex. The formation of soluble Gd complex is well followed by the increase of water proton relaxation rate (FIG. 2). After about two hours the enzymatic reaction reaches the steady state.

U937 cells = experiment: Internalization assay of sonicated Gd-1 particles with U937 cells endowed with macrophagic activity; type: cell-based; conditions: 0.2 mg Gd-1 in medium, ca. 4 hours incubation
Method: The particles obtained by the sonication procedure described in example 5 has been tested in an internalization assay with the U937 cells endowed with macrophagic activity. The incubation medium contains 0.2 mg of Gd-1 (total). After ca. 4 hours of incubation the amount of Gd internalized reached a maximum value of 2×10^−8 moles/mg of protein. This means that ca 10% is taken up by the cells. Such amount is well sufficient to allow the visualisation of these cells. Once the enzymatic degradation process proceeds the signal intensity progressively increases to reach a steady state which lasts for a time long enough for the type of applications of this protocol.

[1] = test system: esterase from swine liver [EC3.1.1.1]; experiment: In vitro evaluation of esterase activity on Gd-1 particles (turbidity, water proton relaxation rate R1); type: biochemical
Method: (§1) The activity of two different enzymes (esterase from swine liver [EC3.1.1.1] and lipase from Chromobacterium viscosum [EC 3.1.1.34]) was evaluated on Gd-1 particles.
(§2) This behaviour was confirmed by measurements of the water protons relaxation rate (R1) on a NMR spectrometer (Stelar Spinmaster) operating at 0.5T and 298K.
(§3) In the presence of the esterase (2 mg) R1 rapidly rises and after 2-3 hours reaches the value expected for a soluble Gd(III) complex resulting from the hydrolysis of the ester bonds of the Gd-1 complex. The differences in the two observed curves, and therefore the different reaction kinetics, can be ascribed to the different amounts of active units per mg of the two enzymes added to the Gd complex suspension.

[2] = target: lipase from Chromobacterium viscosum [EC 3.1.1.34] (Pseudarthrobacter phenanthrenivorans, UniProt P0DUB9); experiment: In vitro evaluation of lipase activity on Gd-1 particles (turbidity, R1); type: biochemical; conditions: HEPES buffer 50 mM, pH=8, 310K
Method: as §1, §2, §3

neutrophiles = experiment: Labelling of neutrophiles with sonicated Gd-1 particles; type: cell-based; conditions: ca. […]10^6 neutrophiles, 0.4 mg particles, 37° C.
Method: One of the applications for labelled cells deals with the identification of infection loci in patients affected by fever of unknown origin. This imply the labelling of Neutrophiles obtained from the standard procedures from a specimen of blood drawn from the patient. After labelling the neutrophiles have to be re-injected in the patient who is subjected to MRI examination.
The labelling of neutrophiles (ca. 2.5×10^6) has been carried out by incubating them (5 ml) in a medium containing 0.4 mg of particles of Gd-1 prepared according to example 5.
After 2.5 h of incubation at 37° C., the cells were harvested, whashed several times with PBS, then analyzed. The content of Gd per mg protein is 8.8×10^−8 moles, i.e. an amount that after the intracellular degradation of the particle, is well sufficient to allow the visualization of the labelled cells by MRI techniques.

[3] = test system: U937 monocytes differentiated to macrophages; experiment: Intracellular esterase activity on Gd-1 in intact cells; type: cell-based
Method: An experiment for evaluating the enzymatic activity inside intact cells was set up, using Gd-1 particles as probes. For this purpose, different capsules containing about 2×10^6 cells (U937 monocytes differentiated to macrophages as described above) were incubated with ca. 5 mg of Gd-1 particles suspended in 5 mL medium (RPMI) for four hours at 37° C. After this period the cells were washed three times with PBS, covered with further 5 ml RPMI and re-incubated for different times at 37° C. In this way it was possible to isolate the contribution deriving from the esterase-catalysed hydrolysis of Gd-1 particles for the time interval that […] the internalisation step. The proton relaxation rate was measured at successive time intervals (0.5, 1, 2 hours). After 4 hours incubation in the presence of Gd-1 particles the cells internalise about 60 nmol complex, but only 50% of the internalised particles is hydrolysed in this time and contributes to the total relaxivity. In fact, the relaxivity of the cytosolic extract is 2.5 when the cells are resuspended in a medium devoid of Gd-1 and raises to 3.7 in the following two hours of enzymatic hydrolysis. It can be therefore assumed that 80% of Gd-1 internalised particles have been solubilised by cellular esterases (FIG. 5).

U937 monocytes = experiment: Phagocytic uptake of Gd-1 particles on U937 monocytes differentiated with TPA; type: cell-based
Method: The phagocytic uptake of the Gd-1 particles was carried out on U937 monocytes previously treated for three days with TPA to induce cell differentiation. The size of the Gd-1 particles was determined by electron microscope observation and the measured diameter ranged from 0.5 to 10 μm. Most particles had diameter <10 μm, which is sufficiently small to allow the phagocytic process. The uptake was carried out at 37° C. and the cells were incubated with two different amounts of Gd-1 at subsequent times (1 to 12 hours). After incubation at 37° C. for several hours, the medium was removed and the cells were washed three times with 5 mL PBS. In these conditions, Gd-1 particles suspended in the medium are not solubilised; in fact, the relaxivity of the medium remains very close to that of pure water (0.45 s^−1). The amount of Gd(III) detected in the cells is directly proportional to incubation time and in 12 hours the saturation of the kinetic curve is not reached (FIG. 3). As expected, the amount of phagocyted Gd(III) is proportional to the amount of complex added to the culture medium at time zero. It is interesting to compare this behaviour with the water proton relaxation rate in the cytosolic extract. This was obtained by freezing three times the cells at −80° C. after completion of phagocytosis. […]

Chain of lipase from Chromobacterium viscosum [EC 3.1.1.34] (P0DUB9 whole entry): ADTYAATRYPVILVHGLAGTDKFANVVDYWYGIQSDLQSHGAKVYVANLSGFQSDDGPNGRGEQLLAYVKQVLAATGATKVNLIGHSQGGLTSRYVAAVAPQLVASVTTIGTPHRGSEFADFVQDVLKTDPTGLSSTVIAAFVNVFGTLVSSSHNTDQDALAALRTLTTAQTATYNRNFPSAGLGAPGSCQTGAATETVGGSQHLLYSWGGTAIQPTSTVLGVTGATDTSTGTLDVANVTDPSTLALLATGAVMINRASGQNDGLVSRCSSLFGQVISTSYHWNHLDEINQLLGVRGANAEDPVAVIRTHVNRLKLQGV

CCCCCCCCCCCCCCCCCC(=O)OCCOCCNC(=O)CN(CCN(CCN(CC(=O)O)CC(=O)NCCOCCOC(=O)CCCCCCCCCCCCCCCCC)CC(=O)O)CC(=O)O [Gd-1]
time for the enzymatic reaction to reach the steady state (macrophages esterase): about two
amount of Gd internalized (maximum value) (U937 cells): 2×10^−8 moles/mg of protein
fraction taken up by the cells (U937 cells): ~10%
turbidity of the suspension in the presence of the enzyme ([1]; HEPES buffer 50 mM, pH=8, 310K): progressive decrease in turbidity
time for R1 to reach the value expected for a soluble Gd(III) complex ([1]; esterase 2 mg): 2 to 3 h
water protons relaxation rate (R1) in the absence of enzyme ([1]; no enzyme, 0.5T, 298K, not different from pure water): 0.38 s⁻¹
turbidity of the suspension in the presence of the enzyme [2]: progressive decrease in turbidity
content of Gd per mg protein (neutrophiles): 8.8e-08 mol
amount of complex internalised by the cells ([3]; about 2×10^6 cells, ca. 5 mg particles in 5 mL RPMI, 4 hours, 37° C.): about 60 nmol
fraction of the internalised particles hydrolysed ([3]; after 4 hours incubation with particles): 50%
relaxivity of the cytosolic extract ([3]; after the following two hours of enzymatic hydrolysis): 3.7
fraction of internalised particles solubilised by cellular esterases ([3]; after two further hours of hydrolysis): 80%
relaxivity of the cytosolic extract ([3]; when cells are resuspended in a medium devoid of Gd-1): 2.5
relaxivity of the medium with suspended particles (U937 monocytes; culture medium, 37° C., particles not solubilised): ~0.45 s⁻¹

CC(O)CN1CCN(CC(=O)[O-])CCN(CC(=O)[O-])CCN(CC(=O)[O-])CC1.[Gd+3] (stereo not drawn) [Gd-HPDO3A, reference compound]
presence of the complex in the cells (relaxation rate of water protons in the cytosolic extract) (U937 monocytes; soluble complex incubated in the same conditions as Gd-1 particles): complete absence
